Data on two compounds can be found in PMC6525019 (Cell chemical biology, 2019).

pKd, pKi: −log10 of the molar value.

For experiment [1], the target named is T1, RibBX (Acinetobacter baumannii, UniProt V5V8R9).
T1 sequence (V5V8R9 1-373): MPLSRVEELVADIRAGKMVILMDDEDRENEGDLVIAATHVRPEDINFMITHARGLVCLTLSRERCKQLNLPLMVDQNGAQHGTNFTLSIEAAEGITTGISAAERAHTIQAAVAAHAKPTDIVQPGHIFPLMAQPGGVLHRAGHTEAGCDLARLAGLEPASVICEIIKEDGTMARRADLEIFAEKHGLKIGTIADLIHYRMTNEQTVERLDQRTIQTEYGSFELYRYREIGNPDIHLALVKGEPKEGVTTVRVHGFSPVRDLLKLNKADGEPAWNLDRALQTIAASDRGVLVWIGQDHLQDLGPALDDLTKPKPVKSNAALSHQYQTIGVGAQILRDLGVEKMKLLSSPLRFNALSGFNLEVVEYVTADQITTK
Nature of the experiment: isothermal titration calorimetry. In kind it is binding. For orientation: Isothermal titration calorimetry measures the heat released or taken up as one component is titrated into another.

Experiment [2] deals with T1, RibBX. Nature of the experiment: colorimetric DHBPS assay. In kind it is biochemical.
Experiment [3] has as its target A. baumannii RibBX (3,4-dihydroxy-2-butanone 4-phosphate synthase (DHBPS; RibB) fusion protein) (Acinetobacter baumannii ATCC 17978). Nature of the experiment: SEC. (Size exclusion chromatography separates by hydrodynamic size, large species first.)
Experiment [4] has the same target. Kind of experiment: crystal structure.

For `Cc1cc2nc3c(=O)[nH]c(=O)nc-3n(C[C@H](O)[C@H](O)[C@H](O)COP(=O)(O)O)c2cc1C` [FMN], the pKd (in general, the negative decadic logarithm of the Kd, by convention in mol/L) on RibBX [1] was 6.15. The pKi (commonly −log10 of the Ki, conventionally taken in molar units) on RibBX [2] is 5.11.

On to “A. baumannii RibBX (3,4-dihydroxy-2-butanone 4-phosphate synthase (DHBPS; RibB) fusion protein) (enzyme)”, for which the stoichiometry N (commonly the number of molecules, sites or subunits per partner or assembly) was 2 in experiment [3] and 4 in experiment [4].
